In US10478421B1, “Sortilin binding compounds, formulations, and uses thereof” (University of Florida, priority 2016, dated 2019):
“And” between values parts separate entries of the source, which are not always exact repeats. Equal entries are not always repeated.

What was measured:
LDLR = experiment: Cellular LDLR by immunoblot in McA cells; format: cell-based, rat; details: 10 μM, 18 h, 1% BSA/DMEM
Method: McA cells were incubated in 1% BSA/DMEM with DMSO, 541 (10 μM) or 984 (10 μM) for 18 h. Cellular proteins were extracted and analyzed by IB for LDLR (LS-C146979, 1:2000) (FIG. 5A) or PCSK9 (Ab125251, 1:2000) (FIG. 5B) using HRP-linked secondary antibody and ECL detection. Loading controls included β-ACTIN (Rockland ph600-401-886) and GAPDH (cb1001mAb (6C5). Band intensities were measured using ChemiDocXRS+ system and evaluated using ImageLab 5.1 software (BioRad). Results are average of triplicates ±S.D. PCSK9 is a known ligand for sortilin where sortilin acts as a chaperone for PCSK9 secretion.

hsortilin [1] = molecular target: T1, hsortilin (Homo sapiens, UniProt Q99523); experiment: Surface plasmon resonance of NT and cpd984 on immobilized hsortilin (Ni-NTA chip, Example 1); format: binding
T1 construct: Human sortilin (hsortilin) (Ser78-Asn755) with C-terminal 6-His tag; purchased R&D Systems, Inc. (Minneapolis, Minn.)
T1 sequence (Q99523 78-755): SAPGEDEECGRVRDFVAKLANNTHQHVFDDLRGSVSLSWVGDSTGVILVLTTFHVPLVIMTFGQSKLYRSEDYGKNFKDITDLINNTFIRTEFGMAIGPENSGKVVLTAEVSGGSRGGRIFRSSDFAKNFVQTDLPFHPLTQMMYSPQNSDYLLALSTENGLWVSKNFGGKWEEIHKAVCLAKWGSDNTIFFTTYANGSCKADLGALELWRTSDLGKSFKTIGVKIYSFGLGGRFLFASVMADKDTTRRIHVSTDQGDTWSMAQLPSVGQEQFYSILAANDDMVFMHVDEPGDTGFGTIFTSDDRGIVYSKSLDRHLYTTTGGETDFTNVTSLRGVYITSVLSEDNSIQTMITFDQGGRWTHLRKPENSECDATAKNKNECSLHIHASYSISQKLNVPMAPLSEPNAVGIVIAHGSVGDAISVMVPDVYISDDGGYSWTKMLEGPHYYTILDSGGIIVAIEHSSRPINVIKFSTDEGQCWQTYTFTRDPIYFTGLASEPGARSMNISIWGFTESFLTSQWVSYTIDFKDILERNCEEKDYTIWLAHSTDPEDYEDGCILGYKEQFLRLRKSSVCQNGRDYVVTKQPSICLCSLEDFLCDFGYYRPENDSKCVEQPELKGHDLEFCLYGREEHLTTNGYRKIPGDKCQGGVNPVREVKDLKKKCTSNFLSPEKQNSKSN
Method: Surface plasmon resonance measurements were performed on a Biacore T200 instrument equipped with Ni-NTA sensor chips with ˜6800 response units (RU) for hsortilin covalently immobilized to the surface. HBS-DMSO running buffer (10 mM Hepes pH 7.4, 150 mM NaCl, 1% DMSO) was used at a flow rate of 30 μl/min and injections performed with times for association of 90 s, and dissociation of 300 s, followed by injection of buffer to regenerate the hsortilin surface. Binding was expressed in relative RU; the difference in response between the immobilized protein flow cell and the corresponding control flow cell.

human sortilin = molecular target: T2, human sortilin (Homo sapiens, UniProt Q99523); experiment: Thermophoresis binding to human sortilin
T2 sequence (Q99523 78-831): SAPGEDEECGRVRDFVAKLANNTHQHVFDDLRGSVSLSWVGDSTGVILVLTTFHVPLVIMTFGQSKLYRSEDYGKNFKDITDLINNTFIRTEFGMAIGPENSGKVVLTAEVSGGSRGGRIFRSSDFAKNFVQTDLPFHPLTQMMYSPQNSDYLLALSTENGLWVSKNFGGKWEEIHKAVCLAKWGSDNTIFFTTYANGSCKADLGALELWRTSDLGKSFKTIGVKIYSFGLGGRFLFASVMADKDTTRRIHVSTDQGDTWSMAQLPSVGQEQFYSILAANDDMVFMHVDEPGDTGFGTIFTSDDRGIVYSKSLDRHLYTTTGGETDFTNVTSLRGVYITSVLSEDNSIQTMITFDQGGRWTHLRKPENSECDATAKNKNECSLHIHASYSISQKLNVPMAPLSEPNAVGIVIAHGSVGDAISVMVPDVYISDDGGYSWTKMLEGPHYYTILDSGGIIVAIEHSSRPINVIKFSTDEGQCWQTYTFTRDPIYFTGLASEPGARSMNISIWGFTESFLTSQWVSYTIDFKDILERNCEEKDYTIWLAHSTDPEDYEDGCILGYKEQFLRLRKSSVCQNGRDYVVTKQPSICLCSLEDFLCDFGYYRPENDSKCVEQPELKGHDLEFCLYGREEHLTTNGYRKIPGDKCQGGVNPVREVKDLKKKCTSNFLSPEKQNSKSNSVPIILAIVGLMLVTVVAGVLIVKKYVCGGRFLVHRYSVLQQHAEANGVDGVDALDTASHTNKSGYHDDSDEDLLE
Method: Due to inherent fluorescence of 541 small molecule, thermophoresis was performed in two different buffer conditions (PBS n=3 and MST n=2) and at two sets of concentration ranges. […] SPR indicates a high and low affinity binding site of cpd984 to human sortilin of hsortilin with Kd of about 200 μM and about 20 nM.

hsortilin [2] = molecular target: T1, hsortilin; experiment: Liposome floatation assay of hsortilin binding to PIP3 liposomes; details: increasing concentrations of cpd984
Method: Unilamellar liposomes containing specific lipid compositions were produced using lipids dissolved in chloroform that were mixed according to mole percentages of 2.6 μmoles total phospholipid. Lipids were dried and desiccated overnight followed by incubation with PBS (2.6 ml) for 1 h. Lipids were resuspended by vortexing and disrupted by sonication for 30 min. To measure binding, a liposome floatation assay was used by adding concentrations 50 nM or 100 nM hsortilin to liposomes (150 μl) containing 5% PIP3, 20% PE and 75% PC; 10% PIP3, 20% PE, 70% PC; or 0% PIP3, 80% PC, and 20% PE as described. Samples containing 50 nM or 100 nM protein and liposomes in the presence and absence of cpd984 were incubated for 10 min at 30° C. and 630 μl of 1.65 M sucrose/PBS was added. Samples were overlaid with 630 μl of 0.75 M sucrose/PBS, and PBS to the top of the tube and centrifuged (200,000×g, 90 min, 4° C.), and floated liposomes recovered from the 0.75 M sucrose layer. Liposomes at the interface of the top and second fraction were recovered and diluted in 2 ml of PBS and re-isolated by centrifugation (16,000×g, 20 min, 4° C.). 50 μl PBS and 20 μl 5×SDS sample buffer was added to the final liposome pellet. Bound proteins were resolved by SDS-PAGE and detected by western immunoblotting following transfer to PVDF membranes.

SPR binding response (hsortilin [1]; 100 nM NT injected with 500 μM cpd984): 64.1 RU and 64.7 RU
averaged RU of NT co-injected with 984 (hsortilin [1]; 100 nM NT with 500 μM cpd984, average): 64.4 RU
increase in binding to hsortilin for co-injected NT over the combination of NT and cpd984 alone (hsortilin [1]; 100 nM NT, 500 μM cpd984): 14.5 RU
SPR binding response (hsortilin [1]; 500 μM cpd984 alone): 45.1 RU and 44.8 RU
RU of 500 μM cpd984 and 100 nM NT (sum of separate injections) (hsortilin [1]; sum of averaged responses injected alone): 50.0 RU
Kd (human sortilin; high affinity binding range): 0.007 µM
Kd (human sortilin; low affinity binding range): 100 to 300 µM
Structure (SMILES): CN1CCC[C@H]1C(=O)Nc1cccc(NC(=O)CCc2ccccc2)c1 [cpd984, (2S)-1-methyl-N-{3-[(3-phenylpropanoyl)-amino]phenyl} pyrrolidine-2-carboxamide]
effect on LDL receptors (LDLR): increase in LDL receptors
effect on sortilin binding to PIP3 liposomes (hsortilin [2]): increased sortilin binding to PIP3 liposomes
